Like-named read-outs stand apart in the source and are kept apart here. Non-standard residues stand in square brackets, D forms with d. Residues, ends and D or L forms follow the SMILES beside them. 1Nal = N[C@@H](Cc1cccc2ccccc12)C(=O)O; d1Nal = N[C@H](Cc1cccc2ccccc12)C(=O)O; d2Nal = N[C@H](Cc1ccc2ccccc2c1)C(=O)O
How the values were obtained:
[1] = system: Human melanocytes; assay: Test on suppression of the melanin formation caused by human melanocytes (MSH added); assay type: cell-based; conditions: for Melanin formation suppressing activity (evaluation class): class of minimum concentration showing melanin formation suppressing activity; for Suppression rate of the melanin formation: human melanocytes + MSH, 6th day
Experimental: Human melanocytes in logarithmic growth phase were treated with trypsin and inoculated to a 6-well plate with “Medium 154s” (manufactured by Kurabo Industries Ltd., containing a growth factor (HMGS)), in an amount of 1.5×10^5 per 1 well in terms of cell number. The cells were cultured at 37° C. in a carbon dioxide incubator, the CO2 concentration being 5%, for 1 day. Thereafter, rinsing was carried out with the use of HBS (Hepes Buffer Saline), followed by medium replacement with “MCDB153” (containing fetal bovine serum, insulin, b-FGF, transferrin, and tocopherol), and followed by culturing for further 2 days. A whitening agent (containing a compound to be tested) was prepared with “MCDB153” (containing fetal bovine serum, insulin, b-FGF, transferrin, and tocopherol)+melanocyte-stimulating hormone in such way that the concentration would be 200 μM, 20 μM, or 2 μM, and was added to the 6-well plate. Also, a further 6-well plate culture was carried out with the use of “MCDB153” (containing fetal bovine serum, insulin, b-FGF, transferrin, and tocopherol)+melanocyte-stimulating hormone without the whitening agent, and still further a 6-well plate culture was carried out with the use of “MCDB153” (containing fetal bovine serum, insulin, b-FGF, transferrin, and tocopherol) alone, at the same time. The medium replacement with the above “MCDB153” (containing fetal bovine serum) containing a whitening agent was carried out twice every 2 days.
After the first addition of the whitening agent, the effect of suppressing the melanin formation was confirmed on the 6th day. Namely, the medium on each 6-well plate was removed by suction, and the wells were rinsed with HBS. Thereafter, the 6-well plate was air-dried, and ⅕M NaOH (230 μl) was added to the wells to dissolve the melanin out of the melanocytes. The solution (200 μl) was evaluated by Abs (absorbance) on a microplate reader (475 nm). The suppression rate of the melanin formation by each compound tested was calculated according to the following equation (1). The suppression rate of the melanin formation(%)={1−(A1−A3)/(A2−A3)}×100 (1) • A1: absorbance at 475 nm when both of the compound to be tested and MSH were added. • A2: absorbance at 475 nm when the compound to be tested was not added and MSH was added. • A3: absorbance at 475 nm when both of the compound to be tested and MSH were not added.

[2] = system: B16 melanoma cells; assay: Measurement of 50% inhibitory concentration of cAMP production (IC50) with 10 nM melanocyte-stimulating hormone; assay type: cell-based
Experimental: The 50% inhibitory concentration of cAMP production (IC50) according to the present invention regarding the compounds having a melanocyte-stimulating hormone (MSH) inhibitory activity is measured and defined as follows.
Namely, B16 melanoma cells are inoculated on a 12-well plate in such way that 1×10^4 cells are inoculated into 1 well, and cultured at 37° C. for 48 hours in the presence of 5% CO2. After the culturing, the wells are washed with 1 ml of a serum-free medium (serum-free D-MEM medium) per 1 well. Then, a serum-free medium containing 1 mM 3-isobutyl-1-methylxanthine, 10 nM melanocyte-stimulating hormone and a compound to be tested at a different concentration is added in an amount of 1 ml per 1 well, followed by incubation at 37° C. for 5 minutes. After the incubation, the medium is completely removed from the plate, 1 ml of ice-cooled 2.5% perchloric acid is exactly added thereto, and then the whole is incubated for 30 minutes under ice-cooling to extract cAMP from within the cells. After the incubation, the extract solution is neutralized by adding 4.2M potassium hydroxide solution in an amount of […] per 1 well.
The neutralized extract solution is centrifuged at 4° C. at 12,000 rpm for 10 minutes, and the amount of cAMP in the supernatant is quantitatively determined using “Biotrak cAMP EIA System” (manufactured by Amersham Pharmacia Biotech), as follows. By the way, all the operations are carried out at 5° C. or lower. First, cAMP authentic samples are prepared so as to be 0 to 3200 fM, and each sample is placed in an amount of 100 μl in a 96-well plate. Then, 200 μl of 0.05M acetate buffer (pH 5.8, containing 0.02% serum and 0.01% antiseptic agent) is placed in an NSB well (Non-specific Binding Well) and 100 μl in a blank well. In a sample well is placed 100 μl of a sample to be evaluated. In each of all the wells except for the blank well and the NSB well is added 100 μl of antiserum. The 96-well plate is capped, slowly shaken, and incubated at 3 to 5° C. for 2 hours. After the incubation, 50 μl of cAMP peroxidase is added to each of all the wells except for the blank well. The plate is capped and incubated at 3 to 5° C. for 1 hour. After the incubation, each of all the wells is washed four times with 400 μl in total of 0.01M phosphate buffer (pH 7.5, containing 0.05% “Tween 20”). The liquid remaining in the wells is removed by placing the plate in such manner that the opening parts of the wells face downward, and patting the plate on a paper.
To each of all the wells is added 150 μl of an enzyme substrate, and the plate is shaken at 15 to 30° C. for 1 hour. After the shaking, 100 μl of 1 M sulfuric acid is added to each well, and absorbance at 450 nm is measured. A calibration curve is prepared from the absorbance of the cAMP authentic samples and the amount of cAMP of each sample is determined.
The 50% inhibitory concentration of cAMP production (IC50) is defined by the value in terms of nM unit, of a 50% inhibitory concentration obtained by the above procedures, of a test compound against cAMP production with 10 nM melanocyte-stimulating hormone.
According to the method of measuring the 50% inhibitory concentration of cAMP production (IC50) explained in the above, IC50 was measured on the agents listed in following Table 2, i.e., D-1-Nal-Arg-LeuNH2, D-2-Nal-Arg-LeuNH2, L-1-Nal-Arg-LeuNH2 and D-Trp-Arg-LeuNH2.

[3] = Test of stability during storage (coloring of aqueous 0.1% solution, APHA method); assay type: physicochemical; conditions: for Degree of coloring (APHA Standard color): aqueous 0.1% solution stored at 4° C. for 6 months; for Stability during storage (evaluation class): class of degree of coloring, APHA standard colors
Experimental: An aqueous 0.1% solution of D-2-Nal-Arg-LeuNH2 of the present invention, and that of D-Trp-Arg-LeuNH2 which is a known melanocyte-stimulating hormone inhibitor were prepared and stored at 4° C. for 6 months, respectively. The stability during storage was evaluated by comparing the degree of coloring with standard colors of APHA (American Public Healthy Association) method.

[4] = system: Weiser-Maples brown guinea pigs; assay: Inhibitory test of melanocyte-stimulating hormone in living body (test of suppressing pigmentation in brown guinea pigs); assay type: in vivo, guinea pig; set-up: key: ◯: positive pigmentation suppressing effect; X: no pigmentation suppressing effect; —: not tested; conditions: 50 mM in 50% ethanol-water applied to skin, UVB irradiation, ΔL* vs 50% ethanol
Experimental: Inhibitory test of melanocyte-stimulating hormone was carried out by repeating the application of each test compound on a guinea pig and irradiation with ultraviolet rays, followed by measuring the degree of coloring, as follows.
D-2-Nal-Arg-LeuNH2 (50 mM, dissolved in 50% ethanol-water) and D-Trp-Arg-LeuNH2 (50 mM, dissolved in 50% ethanol-water) were used, and 50% ethanol-water was used as the control.
Male Weiser-Maples brown guinea pigs (4 weeks old) were purchased from Tokyo Experimental Animal K.K. and used after pre-reared for 7 weeks.
The brown guinea pigs were individually fixed by means of a fixing instrument and shaved in a square shape of about 3 cm×3 cm on their back with the use of a pair of hair clippers “THRIVE MODEL 6000AD” (manufactured by Natsume Seisakusyo) and “Home Hair Clipper Ceramic ER722” (manufactured by National) and an electric shaver “Dual 1500AC/RC” (manufactured by BRAUN). The skin after shaved was wiped with a water-soaked absorbent cotton, and the moisture was removed with a paper towel “KIMWIPE” (manufactured by CRECIA).
The skin of the back of the shaven brown guinea pigs was wiped with an ethanol-soaked absorbent cotton, and the horny layer having an area of about 2 cm×2 cm was subjected to tape stripping five times with the use of an adhesive tape “Scotch 313D” (manufactured by 3M). […]

[5] = B16 melanoma cells, 10 nM melanocyte-stimulating hormone, 5 min incubation, read-out: 50% inhibitory concentration (IC50) of cAMP production
[6] = class of 50% inhibitory concentration in the test, read-out: MSH inhibitory activity (evaluation class)

Structure (SMILES)	Melanin formation suppressing activity (evaluation class) [1]	Suppression rate of the melanin formation ([1]; concentration 20 μM)	Suppression rate of the melanin formation ([1]; concentration 200 μM)	IC50 [2, 5]	IC50 [2, 6]	Degree of coloring (APHA Standard color) [3]	Stability during storage (evaluation class) [3]	Brown Guinea pig pigmentation suppressing test (evaluation) [4]	Suppression rate of the melanin formation ([1]; concentration 2 μM)
CC(C)C[C@H](NC(=O)[C@H](CCCNC(=N)N)NC(=O)[C@H](N)Cc1cccc2ccccc12)C(N)=O [D-1-Nal-Arg-LeuNH2] (H-[d1Nal]-Arg-Leu-NH2)	B (11 to 100 μM)	43%	52%	540 nM	101 to 1000 nM	–	–	–	–
CC(C)C[C@H](NC(=O)[C@H](CCCNC(=N)N)NC(=O)[C@H](N)Cc1c[nH]c2ccccc12)C(N)=O [D-Trp-Arg-LeuNH2, reference compound] (H-[dW]-Arg-Leu-NH2)	B (11 to 100 μM)	24%	57%	230 nM	101 to 1000 nM	200 APHA	C (101 or more)	X	–
CC(C)C[C@H](NC(=O)[C@H](CCCNC(=N)N)NC(=O)[C@@H](N)Cc1cccc2ccccc12)C(N)=O [L-1-Nal-Arg-LeuNH2] (H-[1Nal]-Arg-Leu-NH2)	B (11 to 100 μM)	8%	28%	470 nM	101 to 1000 nM	–	–	–	–
CC(C)C[C@H](NC(=O)[C@H](CCCNC(=N)N)NC(=O)[C@H](N)Cc1ccc2ccccc2c1)C(N)=O [D-2-Nal-Arg-LeuNH2] (H-[d2Nal]-Arg-Leu-NH2)	A (1 to 10 μM)	51%	70%	42 nM	≤ 100 nM	20 APHA	A (20 or less)	◯	49%

Reference: US7375085B1, “Melanocyte-stimulating hormone inhibitors” (Ajinomoto Co., Inc., priority 1999, dated 2008)
